The values that follow come from patent US20250188110A1, “SPECIFIC SMALL MOLECULE INHIBITORS THAT BLOCK KMT9 METHYLTRANSFERASE ACTIVITY AND FUNCTION” (ALBERT-LUDWIGS-UNIVERSITÄT FREIBURG, priority 2021, published 2025).

Like-named read-outs stand apart in the source and are kept apart here.

Experiment [1] addresses T1, KMT9 (Homo sapiens, UniProt Q9Y5N5).
T1 sequence (Q9Y5N5 1-214): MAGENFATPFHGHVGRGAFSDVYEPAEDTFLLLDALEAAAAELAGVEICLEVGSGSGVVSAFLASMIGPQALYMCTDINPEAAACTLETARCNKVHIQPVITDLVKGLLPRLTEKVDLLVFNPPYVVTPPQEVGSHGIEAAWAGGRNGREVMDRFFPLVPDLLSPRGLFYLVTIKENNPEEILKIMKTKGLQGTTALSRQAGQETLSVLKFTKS
T1 sequence (Q9UI30 1-120 isoform Q9UI30-2 partner): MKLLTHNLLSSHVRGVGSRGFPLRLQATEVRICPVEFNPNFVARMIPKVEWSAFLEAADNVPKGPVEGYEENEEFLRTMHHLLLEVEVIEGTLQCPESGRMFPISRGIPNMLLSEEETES
Description: KMT9 methyltransferase inhibition assay, MTaseGlo luminescence (from entry 155). It counts as biochemical. The settings on record: 100 nM KMT9, 5 μM ETF1, 1 μM SAM. The procedure, abridged:
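KMT9 (100 nM final) pre-incubated with inhibitor for 15 min at room temperature, then reacted with 5 μM ETF1 and 1 μM SAM for 2 h at 30° C. at 2% DMSO final. MTaseGlo luminescence read after 60 min detection; IC50 reported in four potency bins.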

Experiment [2] addresses T1, KMT9. As to the kind of experiment: KMT9 thermal shift assay (SyproOrange). In kind it is binding. The procedure, abridged: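 Recombinant KMT9 was incubated with compound and SyproOrange at 25° C in 50 mM BTP pH 8.5, 1 mM MgCl2, 1 mM DTT. It was then heated from 20° C to 95° C at 1° C per 15 s with fluorescence read each step. Tm came from a Boltzmann sigmoidal fit; ΔTm relative to DMSO control, binned in 5 K ranges.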

In experiment [3] the target is T1, KMT9. Description: Microscale thermophoresis (MST) KMT9 binding. The method in brief:
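His-tagged KMT9 (20 nM), RED-Tris-NTA labelled, titrated with varying compound concentrations in 25 mM HEPES pH 7.5, 100 mM NaCl, 1 mM DTT, 0.05% Tween. MST at 40% MST and 100% LED power, Nano-RED excitation; Kd binned A ≤10 nM, B 10–100, C 100–1000, D >1000 nM.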
For orientation: MST reads how a fluorescent partner responds to local heating, with and without ligand.

[4] abbreviates: from entry 155: MTaseGlo assay, read-out: Inhibition.
Where [5] appears, read: ΔTm, 500 µM compound, 2 μM KMT9, 5X SO, read-out: Thermal shift.
[6] abbreviates: microscale thermophoresis, His-tag labelled KMT9 (20 nM), read-out: MST.
Setting [7] is: IC50 class, MTaseGlo procedure (entries from 155 on), read-out: Inhibition.
Where [8] appears, read: ΔTm class, 500 uM compound, 2 μM KMT9, read-out: Thermal shift.
[9] abbreviates: His-tag labelled KMT9 20 nM, Kd class, read-out: MST.
Where [10] appears, read: MTaseGlo procedure (entries from 155), read-out: Inhibition (IC50).
Setting [11] is: 500 µM compound, 2 μM KMT9, read-out: Thermal shift (ΔTm).
Where [12] appears, read: His-tag labelled KMT9 20 nM, read-out: MST (Kd).

For the compound `O[C@@H]1[C@@H](CNCCCNCCc2ccccc2)C[C@@H](n2cc(-c3cc(Cc4ccccc4)cs3)c3cncnc32)[C@@H]1O` [Compound 637, (1R,2S,3R,5R)-3-(5-(4-benzylthiophen-2-yl)-7H-pyrrolo[2,3-d]pyrimidin-7-yl)-5-(((3-(phenethylamino)propyl)amino)methyl)cyclopentane-1,2-diol], the IC50 in experiment [1] (setting [4]) was 1000 to 10000 nM. The ΔTm at 500 µM in experiment [2] (setting [5]) was 10 to 15 °C. Further, the Kd in experiment [3] (setting [6]) is > 1000 nM.

For `O[C@@H]1[C@H](O)[C@@H](C2=CCCN(CC3CC3)C2)C[C@H]1n1cc(-c2nc(Cc3ccccc3)cs2)c2cnc(Cl)nc21` [Compound 586, (1R,2S,3R,5R)-3-[5-(4-Benzyl-1,3-thiazol-2-yl)-2-chloropyrrolo[2,3-d]pyrimidin-7-yl]-5-[1-(cyclopropylmethyl)-5,6-dihydro-2H-pyridin-3-yl]cyclopentane-1,2-diol], the IC50 in experiment [1] (setting [7]) was in the range of 1000 to 10000 nM. Besides, in experiment [2] (setting [8]), the ΔTm at 500 µM is ≤ 10 °C. In addition, in experiment [3] (setting [9]), the Kd was 100 to 1000 nM.

Take `Nc1nc(Cl)nc2c1c(-c1nc(Cc3ccccc3)cs1)cn2[C@@H]1C[C@H](C2CCN(CC(F)F)CC2)[C@@H](O)[C@H]1O` [Compound 511, (1R,2S,3R,5R)-3-[4-amino-5-(4-benzyl-1,3-thiazol-2-yl)-2-chloropyrrolo[2,3-d]pyrimidin-7-yl]-5-[1-(2,2-difluoroethyl)piperidin-4-yl]cyclopentane-1,2-diol]: the IC50 in experiment [1] (setting [10]) is 1000 to 10000 nM. Besides, the ΔTm at 500 µM in experiment [2] (setting [11]) was in the range of 10 to 15 °C. For the same compound, the Kd in experiment [3] (setting [12]) lay within 100 to 1000 nM.

On to `Nc1nc(Cl)nc2c1c(-c1nc(Cc3ccccc3)cs1)cn2[C@@H]1C[C@H](C2CCN(CC3CCCC3)CC2)[C@@H](O)[C@H]1O` [Compound 523, (1R,2S,3R,5R)-3-(4-amino-5-(4-benzylthiazol-2-yl)-2-chloro-7H-pyrrolo[2,3-d]pyrimidin-7-yl)-5-(1-(cyclopentylmethyl)piperidin-4-yl)cyclopentane-1,2-diol], for which, in experiment [1] (setting [10]), the IC50 fell in the range of 1000 to 10000 nM. Besides, in experiment [2] (setting [11]), the ΔTm at 500 µM lay in the range of 10 to 15 °C. Besides, the Kd in experiment [3] (setting [12]) was in the range of 100 to 1000 nM.

`Nc1ncnc2c1ccn2[C@@H]1C[C@H](c2ccn[nH]2)[C@@H](O)[C@H]1O` [Compound 391, (1R,2S,3R,5R)-3-(4-amino-7H-pyrrolo[2,3-d]pyrimidin-7-yl)-5-(1H-pyrazol-5-yl) cyclopentane-1,2-diol]: the IC50 in experiment [1] (setting [7]) was > 10000 nM. Also, the ΔTm at 500 µM in experiment [2] (setting [8]) is ≤ 10 °C. Moreover, the Kd in experiment [3] (setting [9]) is > 1000 nM.

Turning to `Nc1ncnc2c1ccn2[C@@H]1C[C@H](c2cccc(-c3cncs3)c2)[C@@H](O)[C@H]1O` [Compound 653, (1R,2S,3R,5R)-3-(4-amino-7H-pyrrolo[2,3-d]pyrimidin-7-yl)-5-(3-(thiazol-5-yl)phenyl)cyclopentane-1,2-diol], the IC50 in experiment [1] (setting [7]) was > 10000 nM. Besides, the ΔTm at 500 µM in experiment [2] (setting [8]) is ≤ 10 °C. The Kd in experiment [3] (setting [9]) is > 1000 nM.

Regarding `CN(CCCNCCc1ccc(F)cc1)C[C@H]1C[C@@H](n2cc(-c3nc(Cc4ccccc4)cs3)c3c(N)nc(Cl)nc32)[C@H](O)[C@@H]1O` [Compound 647, (1R,2S,3R,5R)-3-(4-Amino-5-(4-benzylthiazol-2-yl)-2-chloro-7H-pyrrolo[2,3-d]pyrimidin-7-yl)-5-(((3-((4-fluorophenethyl)amino)propyl)(methyl)amino)methyl)cyclopentane-1,2-diol], the IC50 in experiment [1] (setting [10]) was 1000 to 10000 nM. In experiment [2] (setting [11]), the ΔTm at 500 µM was > 20 °C. The Kd in experiment [3] (setting [12]) was in the range of 10 to 100 nM.

Regarding `Nc1nc(Cl)nc2c1ccn2[C@@H]1C[C@H](c2cccc(OC(F)(F)F)c2)[C@@H](O)[C@H]1O` [Compound 668, (1R,2S,3R,5R)-3-(4-amino-2-chloro-7H-pyrrolo[2,3-d]pyrimidin-7-yl)-5-(3-(trifluoromethoxy)phenyl)cyclopentane-1,2-diol], the IC50 in experiment [1] (setting [10]) was in the range of 1000 to 10000 nM. Moreover, the ΔTm at 500 µM in experiment [2] (setting [11]) is ≤ 10 °C. The Kd in experiment [3] (setting [12]) is 100 to 1000 nM.

Regarding `Nc1nc(Cl)nc2c1c(-c1ccn(Cc3ccccc3)n1)cn2[C@@H]1C[C@H](CNCCCNCCc2ccccc2)[C@@H](O)[C@H]1O` [Compound 636, (1R,2S,3R,5R)-3-(4-Amino-5-(1-benzyl-1H-pyrazol-3-yl)-2-chloro-7H-pyrrolo[2,3-d]pyrimidin-7-yl)-5-(((3-(phenethylamino)propyl)amino)methyl)cyclopentane-1,2-diol], the IC50 in experiment [1] (setting [4]) fell in the range of 100 to 1000 nM. Moreover, in experiment [2] (setting [5]), the ΔTm at 500 µM is > 20 °C. In addition, in experiment [3] (setting [6]), the Kd is ≤ 10 nM.

Regarding `CCc1cn([C@@H]2C[C@H](CNCCCNCCc3ccc(F)cc3F)[C@@H](O)[C@H]2O)c2ncnc(N)c12` [Compound 383, (1R,2S,3R,5R)-3-(4-amino-5-ethyl-7H-pyrrolo[2,3-d]pyrimidin-7-yl)-5-(((3-((2,4-difluorophenethyl)amino)propyl)amino)methyl) cyclopentane-1,2-diol], the IC50 in experiment [1] (setting [4]) fell in the range of 1000 to 10000 nM. The ΔTm at 500 µM in experiment [2] (setting [5]) lay within 10 to 15 °C. Besides, the Kd in experiment [3] (setting [6]) was 10 to 100 nM.

On to `Nc1nc(Cl)nc2c1c(-c1nc(Cc3ccccc3)cs1)cn2[C@@H]1C[C@H](C2CCN(Cc3ccncc3)CC2)[C@@H](O)[C@H]1O` [Compound 527, (1R,2S,3R,5R)-3-(4-amino-5-(4-benzylthiazol-2-yl)-2-chloro-7H-pyrrolo[2,3-d]pyrimidin-7-yl)-5-(1-(pyridin-4-ylmethyl)piperidin-4-yl)cyclopentane-1,2-diol], for which the IC50 in experiment [1] (setting [10]) was 1000 to 10000 nM. The ΔTm at 500 µM in experiment [2] (setting [11]) fell in the range of 10 to 15 °C. Besides, the Kd in experiment [3] (setting [12]) is 10 to 100 nM.

In the case of `CN1CCCC([C@H]2C[C@@H](n3cc(-c4nc(Cc5ccccc5)cs4)c4cnc(Cl)nc43)[C@H](O)[C@@H]2O)C1` (stereo partly drawn) [Compound 515, (1R,2S,3R)-3-[5-(4-benzyl-1,3-thiazol-2-yl)-2-chloropyrrolo[2,3-d]pyrimidin-7-yl]-5-(1-methylpiperidin-3-yl)cyclopentane-1,2-diol], in experiment [1] (setting [7]), the IC50 fell in the range of 1000 to 10000 nM. Also, in experiment [2] (setting [8]), the ΔTm at 500 µM fell in the range of 15 to 20 °C. Also, the Kd in experiment [3] (setting [9]) was 100 to 1000 nM.

Consider `Nc1ncnc2c1ccn2[C@@H]1C[C@H](c2ccc(O)cc2)[C@@H](O)[C@H]1O` [Compound 405, (1R,2S,3R,5R)-3-(4-amino-7H-pyrrolo[2,3-d]pyrimidin-7-yl)-5-(4-hydroxyphenyl) cyclopentane-1,2-diol], for which, in experiment [1] (setting [7]), the IC50 is > 10000 nM. For the same compound, the ΔTm at 500 µM in experiment [2] (setting [8]) lay within 10 to 15 °C. Moreover, the Kd in experiment [3] (setting [9]) was > 1000 nM.

Consider `COc1cccc([C@H]2C[C@@H](n3cc(-c4ccn(C)n4)c4c(N)nc(Cl)nc43)[C@H](O)[C@@H]2O)c1` [Compound 671, (1R,2S,3R,5R)-3-(4-amino-2-chloro-5-(1-methyl-1H-pyrazol-3-yl)-7H-pyrrolo[2,3-d]pyrimidin-7-yl)-5-(3-methoxyphenyl)cyclopentane-1,2-diol], for which the IC50 in experiment [1] (setting [10]) lay in the range of 1000 to 10000 nM. Besides, the ΔTm at 500 µM in experiment [2] (setting [11]) was 10 to 15 °C. Further, the Kd in experiment [3] (setting [12]) fell in the range of 10 to 100 nM.

As for `Nc1nc(Cl)nc2c1c(-c1ccccc1)cn2[C@@H]1C[C@H](CNCCCNCCc2cccc(Oc3ccccc3)c2)[C@@H](O)[C@H]1O` [Compound 564, (1R,2S,3R,5R)-3-(4-amino-2-chloro-5-phenyl-7//pyrrolo[2,3-d]pyrimidin-7-yl)-5-(((3-((3-phenoxyphenethyl)amino)propyl)amino)methyl)cyclopentane-1,2-diol], the IC50 in experiment [1] (setting [10]) is 1000 to 10000 nM. Further, in experiment [2] (setting [11]), the ΔTm at 500 µM was > 20 °C. The Kd in experiment [3] (setting [12]) lay within 10 to 100 nM.

On to `O[C@@H]1[C@H](O)[C@@H](C2CCNCC2)C[C@H]1n1cc(-c2ccn(Cc3ccccc3)n2)c2cnc(Cl)nc21` [Compound 522, (1R,2S,3R,5R)-3-(5-(1-benzyl-1H-pyrazol-3-yl)-2-chloro-7H-pyrrolo[2,3-d]pyrimidin-7-yl)-5-(piperidin-4-yl)cyclopentane-1,2-diol], for which the IC50 in experiment [1] (setting [4]) lay in the range of 1000 to 10000 nM. For the same compound, in experiment [2] (setting [5]), the ΔTm at 500 µM was 15 to 20 °C. Moreover, the Kd in experiment [3] (setting [6]) fell in the range of 100 to 1000 nM.

Take `CN1CCC=C([C@H]2C[C@@H](n3cc(-c4nc(Cc5ccccc5)cs4)c4cnc(Cl)nc43)[C@H](O)[C@@H]2O)C1` [Compound 585, (1R,2S,3R,5R)-3-[5-(4-Benzyl-1,3-thiazol-2-yl)-2-chloropyrrolo[2,3-d]pyrimidin-7-yl]-5-(1-methyl-5,6-dihydro-2H-pyridin-3-yl)cyclopentane-1,2-diol]: the IC50 in experiment [1] (setting [7]) lay in the range of 1000 to 10000 nM. Besides, the ΔTm at 500 µM in experiment [2] (setting [8]) was in the range of 10 to 15 °C. For the same compound, the Kd in experiment [3] (setting [9]) fell in the range of 100 to 1000 nM.
